The values that follow come from US20100203110A1, “Therapeutics for Cancer Using 3-Bromopyruvate and Other Selective Inhibitors of ATP Production” (The Johns Hopkins University, priority 2006, published 2010).

One assay relates to VX2 tumor glycolysis. As to the kind of experiment: Glycolytic activity (lactic acid formation) of VX2 tumor slices. Format: cell-based, rabbit. As to conditions: for inhibition of VX2 tumor glycolysis (screen): 6 mM agent, 6 mM glucose, 37° C., 5 h. Here is the method:
Glycolysis was assayed by monitoring the formation of lactic acid following the addition of glucose to a medium containing VX2 tumor slices. Specifically, freshly excised tumors were washed 3 times at 4° C. in 20 ml Chance Hess Medium containing 6.2 mM KCl, 154 mM NaCl, and 11 mM NaPi, pH 7.4. Slices, 1 g each, were then prior incubated for 30 min in a Lab-Line incubator-shaker at 37° C. in 2 ml of the same medium while shaking at 50 rpm. Glucose was then added to give a final concentration of 6 mM, after which the incubation/shaking process was continued with 0.2 ml samples being removed every 30 min for up to 2 h. These samples were subjected to centrifugation at 14,000 rpm in an Eppendorf Centrifuge (Model 5415C). Then, aliquots of the supernatant, 0.01 ml, were removed from each sample, diluted with 0.03 ml of water and subjected to lactic acid determination using the kit supplied by Sigma. The latter contains, in addition to lactic dehydrogenase and NAD+, hydrazine, and glycine buffer, pH 9.2. The mixture was incubated for 30 min at 25° C. after which the absorbance due to formation of NADH was determined at 340 nm using a Gilford Model 260 spectrophotometer. To assess the elevation of the glycolytic activity of the VX2 tumor over that of liver tissue, parallel studies were always carried out in an identical manner with 1 g liver slices derived from the host liver. Finally, in those cases where agents were tested for their capacity to inhibit glycolysis, these were introduced into the system at the prior incubation step with all subsequent steps being run in parallel with those described above for the VX2 tumor or liver alone.
The screen included the following 9 compounds: 2-deoxyglucose (2DOG), 2-fluoro-2-deoxyglucose, 6-fluoro-6-deoxyglucose, 3-O-methyl glucose, 5-thio-D-glucose-6-phosphate, L-glucose, D-xylose, D-lyxose, and 3-bromopyruvic acid (3BrPA). The screen was conducted by incubating VX2 tumor slices in a medium containing 6 mM glucose with 6 mM of each of these agents at 37° C. for 5 h. The use of 6 mM glucose in the medium was used to mimic the maximal amount of glucose that might be in the blood in a real in vivo situation.
To compare the inhibitory effects of 2DOG and 3BrPA on the glycolytic capacity of the isolated liver implanted VX2 tumor, various concentrations of 2DOG and 3BrPA were prior incubated for 30 min at 37° C. with 1 g VX2 tumor slices and glycolysis was monitored.

For another assay, the system named is AS-30D hepatoma cells. As to the kind of experiment: Killing of AS-30D hepatoma cells (trypan blue). Format: cell-based, rat. To be noted: 20 mM, 12 h. On the procedure:
AS-30D hepatoma cells grown in the peritoneal cavity of Sprague Dawley female rats (see Materials) were adapted to grow in tissue culture in Dulbecco's modified Eagle's medium containing 10% fetal bovine serum. Cells were maintained at 37° C. in a humidified atmosphere containing 5% CO2, and counted in a Neubauer chamber after trypan blue dye addition (cell/dye volume=1/1) by visualization under a Nikon inverted microscope.
The studies described above using the VX2 tumor model for liver cancer predict that 2DOG and 3BrPA may have the capacity to kill hepatoma cells expressing the high glycolytic/high hexokinase phenotype. […] Cell killing was assessed in these experiments by counting those cells in which trypan blue had entered.

On to `O=C[C@@H](O)[C@H](O)[C@@H](O)[C@@H](O)CO` [L-glucose], for which the “inhibition of VX2 tumor glycolysis (screen)” value (from here on “inhibition … (screen)”) with VX2 tumor glycolysis (VX2 tumor slices) is given as “ineffective”.
For the compound `O=C[C@@H](O)[C@@H](O)[C@H](O)CO` [D-lyxose], the “inhibition … (screen)” value in the assay on VX2 tumor glycolysis (VX2 tumor slices) is “ineffective”.
As to `O=C[C@H](O)[C@@H](O)[C@H](O)CO` [D-xylose], the “inhibition … (screen)” value in the assay on VX2 tumor glycolysis (VX2 tumor slices) is recorded as “ineffective”.
In the case of `CO[C@@H]([C@H](O)[C@H](O)CO)[C@@H](O)C=O` [3-O-methyl glucose], the “inhibition … (screen)” value with VX2 tumor glycolysis (VX2 tumor slices) is given as “ineffective”.
Take `O=CC[C@@H](O)[C@H](O)[C@H](O)CO` [2DOG, 2-deoxyglucose]: the “inhibition … (screen)” value in the assay with VX2 tumor glycolysis (VX2 tumor slices) is given as “ineffective”. In addition, the IC50 in the assay with VX2 tumor glycolysis (Oryctolagus cuniculus, 0.5 h, prior incubated 30 min at 37° C. with 1 g VX2 tumor slices, read-out: half maximal inhibition of glycolysis) was approximately 15 mM. The “concentration for maximal / complete inhibition of glycolysis” value in the assay on VX2 tumor glycolysis (VX2 tumor slices, 2DOG maximal (70%), 3BrPA complete) is reported as approximately 50 mM. For the same compound, the “maximal inhibition of glycolysis” value in the assay with VX2 tumor glycolysis (at almost 50 mM, VX2 tumor slices) was found to be 70%. Further, in the assay on AS-30D hepatoma cells, the cell killing result is on record as “about 80%”.
In the case of `O=C[C@H](O)[C@@H](O)[C@H](O)[C@H](O)CF` [6-fluoro-6-deoxyglucose], in the assay with VX2 tumor glycolysis (VX2 tumor slices), the “inhibition … (screen)” value is “ineffective”.
For `O=C[C@H](O)[C@@H](O)[C@H](O)[C@H](S)COP(=O)(O)O` [5-thio-D-glucose-6-phosphate], in the assay with VX2 tumor glycolysis (VX2 tumor slices), the “inhibition … (screen)” value is “ineffective”.
With `O=C[C@H](F)[C@@H](O)[C@H](O)[C@H](O)CO` [2-fluoro-2-deoxyglucose], the “inhibition … (screen)” value in the assay on VX2 tumor glycolysis (VX2 tumor slices) is “ineffective”.
